# Counter-ions that a name gives are not always drawn. Like-named read-outs stand apart in the source and are kept apart here.
# How the values were obtained:
# Type in all cases: cell-based
# [1] = system: Bacillus anthracis, Sterne 34F2; experiment: microbe, parasite or virus in culture; details: STERNE34F2, read-out: MIC B.a.
# [2] = system: Bacillus subtilis (ATCC 23857); experiment: MIC determination, microbroth dilution; details: ATCC23857; Bacillus subtilis (ATCC 23857); read-out: MIC B.s.
# [3] = system: Enterococcus faecalis (ATCC 33186); experiment: MIC determination, microbroth dilution; details: ATCC33186; Enterococcus faecalis (ATCC 33186); read-out: MIC E.f.
# [4] = system: MRSA, Staphylococcus aureus (NRS70); experiment: MIC determination, microbroth dilution; details: Staphylococcus aureus (NRS70); read-out: MIC MRSA
# [5] = system: Streptococcus pneumoniae (R6); experiment: MIC determination, microbroth dilution
# [6] = system: Streptococcus pyogenes (ATCC 700294); experiment: MIC determination, microbroth dilution; details: ATCC700294; Streptococcus pyogenes (ATCC 700294); read-out: MIC S. py.
# [7] = system: acinetobacter baumannii (ATCC 19606); experiment: MIC determination, microbroth dilution; details: ATCC19606
# [8] = system: Burkholderia cepacia (ATCC 25416); experiment: MIC determination, microbroth dilution
# [9] = system: Escherichia coli (ATCC 700926); experiment: MIC determination, microbroth dilution; details: ATCC700926; Escherichia coli (ATCC 700926); read-out: MIC E.c.
# E. coli K12 ΔtolC = experiment: microbe, parasite or virus in culture; details: Escherichia coli, read-out: MIC E.c. Δtolc
# [10] = system: Klebsiella pneumoniae (ATCC 33495); experiment: MIC determination, microbroth dilution; details: ATCC33495
# [11] = system: Pseudomonas aeruginosa (PA01); experiment: MIC determination, microbroth dilution
# [12] = system: Proteus mirabilis (ATCC 25933); experiment: MIC determination, microbroth dilution; details: ATCC25933
# [13] = system: Proteus vulgaris (ATCC 33420); experiment: MIC determination, microbroth dilution; details: ATCC33420
# [14] = system: Stenotrophomonas maltophilia (ATCC 13637); experiment: MIC determination, microbroth dilution; details: ATCC13637; Stenotrophomonas maltophilia (ATCC 13637); read-out: MIC S.m.
# [15] = system: Haemophilus influenza (ATCC 49247); experiment: microbe, parasite or virus in culture
# [16] = system: Legionella pneumophila (ATCC 33153); experiment: microbe, parasite or virus in culture; details: ATCC33153, 72 h, read-out: Zone of inhibition L.p.
# [17] = system: Neisseria meningitides (ATCC 13077); experiment: Disc diffusion assay; details: ATCC13077, 4 μg per disc, read-out: Zone of inhibition N.m.
# [18] = system: Neisseria gonorrhoeae (ATCC 49226); experiment: Disc diffusion assay; details: ATCC49226, 4 μg per disc, read-out: Zone of inhibition N.g.
# [19] = system: Neisseria gonorrhoeae (ATCC 49226); experiment: Agar MIC determination (Alamar Blue); details: ATCC49226, agar MIC, read-out: MIC N.g.
# Bacillus anthracis = experiment: microbe, parasite or virus in culture; details: read-out: MIC B.a.
# Yersinia pestis = experiment: microbe, parasite or virus in culture; details: read-out: MIC Y.p.
# [20] = system: live vaccine strain (LVS) of Francisella tularensis; experiment: microbe, parasite or virus in culture; details: Francisella tularensis, read-out: MIC F.t.
# [21] = system: Streptococcus pneumoniae clinical isolates representing several serotypes; experiment: MIC determination, Streptococcus pneumoniae panel of clinical isolates (Table 7); details: Streptococcus pneumoniae
# [22] = system: M. tuberculosis clinical isolates; experiment: microbe, parasite or virus in culture; details: Mycobacterium tuberculosis
# Listeria monocytogenes = experiment: MIC determination (Table 6)
# Moraxella catarrhalis = experiment: MIC determination (Table 6)
# [23] = system: Staphylococcus aureus (ATCC 29213); experiment: MIC determination, microbroth dilution; details: ATCC29213; Staphylococcus aureus (ATCC 29213); read-out: MIC S.a.
# [24] = S. pneumoniae A66.1x, Drug Susceptible, read-out: MIC A66.1x
# [25] = S. pneumoniae BHN97x, Drug Susceptible, read-out: MIC BHN97x
# [26] = S. pneumoniae Daw7, PenG Resistant, read-out: MIC Daw7
# [27] = S. pneumoniae Daw8, PenG Resistant, read-out: MIC Daw8
# [28] = S. pneumoniae Daw62, PenG Resistant, read-out: MIC Daw62
# [29] = S. pneumoniae Daw64, PenG Resistant, read-out: MIC Daw64
structure (smiles),measurement,setting,value
"CN[C@@H]1[C@H](O)[C@H](NC)[C@H]2O[C@@]3(O)C(=O)C[C@@H](C)O[C@H]3O[C@@H]2[C@H]1O [SPC, (2R,4aR,5aR,6S,7S,8R,9S,9aR,10aS)-4a,7,9-trihydroxy-2-methyl-6,8-bis(methylamino)decahydro-4H-benzo[b]pyrano[2,3-e][1,4]dioxin-4-one, reference compound]",MIC,[1],25 µg/mL
same,MIC,[2],25 µg/mL
same,MIC,[3],50 to 100 µg/mL
same,MIC,[4],> 200 µg/mL
same,MIC,"[5]; Streptococcus pneumoniae, read-out: MIC R6",12.5 µg/mL
same,MIC,"[5]; Streptococcus pneumoniae, read-out: MIC S. pn.",12.5 µg/mL
same,MIC,[6],25 µg/mL
same,MIC,[7],> 200 µg/mL
same,MIC,"[8]; ATCC25416, Burkholderia cepacia (ATCC 25416), read-out: MIC B.c.",50 to 100 µg/mL
same,MIC B.c.,"[8]; Burkholderia cepacia, Table 6",50 to 100 µg/mL
same,MIC,[9],25 to 50 µg/mL
same,MIC,E. coli K12 ΔtolC,3.1 to 12.5 µg/mL
same,MIC,[10],> 200 µg/mL
same,MIC,[11],50 to 100 µg/mL
same,MIC,[12],> 200 µg/mL
same,MIC,[13],50 µg/mL
same,MIC,[14],50 to 200 µg/mL
same,zone of inhibition at 4 µg/disc,"[15]; Haemophilus, ATCC49247, read-out: Zone of inhibition H.i.",11 to 13 mm
same,zone of inhibition at 4 µg/disc,[16],0 mm
same,zone of inhibition at 4 µg/disc,[17],13 to 14 mm
same,zone of inhibition at 4 µg/disc,[18],11 to 13 mm
same,MIC,[19],50 µg/mL
same,MIC,Bacillus anthracis,25 µg/mL
same,MIC,Yersinia pestis,12.5 µg/mL
same,MIC,[20],12.5 to 25 µg/mL
same,MIC,"[21]; BAA1407, read-out: MIC BAA-1407",12.5 µg/mL
same,MIC,[21]; read-out: MIC D39X,12.5 µg/mL
same,MIC,[21]; read-out: MIC Daw9,12.5 µg/mL
same,MIC,[21]; read-out: MIC OVA6,12.5 µg/mL
same,MIC,[21]; read-out: MIC T4X,12.5 µg/mL
same,MIC,[21]; [24],6.3 µg/mL
same,MIC,[21]; [25],6.3 µg/mL
same,MIC,[21]; [26],25 µg/mL
same,MIC,[21]; [27],25 µg/mL
same,MIC,[21]; [28],25 µg/mL
same,MIC,[21]; [29],25 µg/mL
same,MIC,"[22]; H37RV, read-out: MIC H37Rv",100 µg/mL
same,MIC,[22]; read-out: MIC TN022,200 µg/mL
same,MIC,[22]; read-out: MIC TN026,200 µg/mL
same,MIC,Listeria monocytogenes,25 to 50 µg/mL
same,MIC,Moraxella catarrhalis,3.1 to 6.3 µg/mL
"CN[C@@H]1[C@H](O)[C@H](NC)[C@H]2O[C@]3(O)[C@H](O[C@@H]2[C@H]1O)O[C@H](C)C[C@@]3(O)CNCc1ccccc1 [compound 1, 3′-(R)-3′-(benzylaminomethyl)dihydrospectinomycin Trihydrochloride]",MIC,[1],50 µg/mL
same,MIC,[2],3.1 µg/mL
same,MIC,[3],25 µg/mL
same,MIC,[23],50 µg/mL
same,MIC,[4],50 to 100 µg/mL
same,MIC,"[5]; Streptococcus pneumoniae (R6), read-out: MIC S. pn.",6.3 to 12.5 µg/mL
same,MIC,"[5]; Streptococcus pneumoniae, S. pneumoniae R6, Drug Susceptible, read-out: MIC R6",6.3 µg/mL
same,MIC,[6],3.1 to 6.3 µg/mL
same,MIC,[7],> 200 µg/mL
same,MIC,"[8]; Burkholderia cepacia, ATCC25416, read-out: MIC B.c., Burkholderia cepacia (ATCC 25416)",≥ 200 µg/mL
same,MIC,"[8]; Burkholderia cepacia, ATCC25416, read-out: MIC B.c., Burkholderia cepacia, Table 6",≥ 200 µg/mL
same,MIC,[9],100 µg/mL
same,MIC,E. coli K12 ΔtolC,25 µg/mL
same,MIC,[10],> 200 µg/mL
same,MIC,[11],> 200 µg/mL
same,MIC,[12],> 200 µg/mL
same,MIC,[13],200 µg/mL
same,MIC,[14],25 µg/mL
same,zone of inhibition at 4 µg/disc,"[15]; ATCC49247, Haemophilus influenza, 4 μg per disc, range of at least two experiments, read-out: Zone of inhibition H.i.",16 mm
same,zone of inhibition at 4 µg/disc,[16],36 to 40 mm
same,zone of inhibition at 4 µg/disc,[17],16 to 22 mm
same,zone of inhibition at 4 µg/disc,[18],16 mm
same,MIC,[19],100 µg/mL
same,MIC,Bacillus anthracis,50 µg/mL
same,MIC,Yersinia pestis,100 to 200 µg/mL
same,MIC,[20],3.1 µg/mL
same,MIC,"[21]; BAA1407, S. pneumoniae BAA-1407, Macrolide Resistant, read-out: MIC BAA-1407",12.5 µg/mL
same,MIC,[21]; [24],3.1 µg/mL
same,MIC,[21]; [25],3.1 µg/mL
same,MIC,"[21]; S. pneumoniae D39X, Drug Susceptible, read-out: MIC D39X",3.1 µg/mL
same,MIC,[21]; [26],6.3 µg/mL
same,MIC,[21]; [27],6.3 µg/mL
same,MIC,"[21]; S. pneumoniae Daw9, PenG Resistant, read-out: MIC Daw9",6.3 µg/mL
same,MIC,[21]; [28],6.3 µg/mL
same,MIC,[21]; [29],6.3 µg/mL
same,MIC,"[21]; S. pneumoniae OVA6, Macrolide Resistant, read-out: MIC OVA6",6.3 µg/mL
same,MIC,"[21]; S. pneumoniae T4X, Drug Susceptible, read-out: MIC T4X",6.3 µg/mL
same,MIC,"[22]; H37RV, read-out: MIC H37Rv",25 µg/mL
same,MIC,Listeria monocytogenes,25 µg/mL
same,MIC,Moraxella catarrhalis,6.3 µg/mL

# — patent US10266544B2, “Aryl substituted aminomethyl spectinomycin analogs as antibacterial agents” (ST. JUDE CHILDREN'S RESEARCH HOSPITAL, INC., priority 2013, dated 2019)
